This note sets out measurements from patent publication US7579477B2, “Thiazole-based nitric oxide donors having alkyl substituent(s) and uses thereof” (priority 2004, dated 2009).

Test [1] deals with c-GMP in aortic rat tissue. As to the kind of experiment: Cyclic-GMP measurement in aortic rat tissue (radioimmunoassay). In kind it is cell-based. As to conditions: for levels of cGMP as compared with GTN: isolated rat aorta, FIGS. 25, 27, 33. How it is done:
GTN (10^−6 M) was added to the chamber and, 1 minute after exposure to the drug, rings (usually 3-5) were taken, wrapped with aluminum foil and immediately frozen in liquid nitrogen for storage. Control sample group was treated with the vehicle solution only. At the time of analysis, rings were thawed, blotted over a dry gauzed and weighted. A known weight of tissue was homogenized in 2 ml ice-cold modified Hank's balanced salt solution containing (in gram/liter) NaCl 8; KCl 0.4; glucose 1; KH2PO4 0.06; Na2HPO4 0.047; Phenol red 0.017 and further containing 25 mM EDTA (disodium salt). The homogenate was centrifuged at 4000 g (force units) for 10 minutes at 2-4° C. and the supernatant was thereafter transferred into fresh pre-cooled test tube containing 1 ml of acetonitrile. The tubes were vortex mixed for a few seconds and subsequently centrifuged at 4000 g for 5 minutes at 2-4° C., to remove the precipitated protein. Each supematant was transferred into a clean test tube and evaporated to dryness under a stream of nitrogen at 55° C. The dry residue was reconstituted with 10 volumes of Tris-EDTA buffer pH 7.5 (0.05 M Tris containing 4 mM EDTA). Aliquots of 100 μl of the reconstituted solution in duplicate were used for c-GMP measurements using Amersham RIA kit, as is described in Haj-Yehia & Benet [Pharmacology, 1995, 273, 1, pp. 94-100]. Standard curves were plotted with six concentrations (0, 0.5, 1, 2, 4 and 8 pmoles of c-GMP per tube).

Test [2] relates to mean arterial blood pressure of rats. Kind of test: Hypotensive effects: mean arterial pressure after iv bolus. In kind it is in vivo, rat. As to conditions: anesthetized rats, phenylephrine, iv bolus doses. On the procedure:
Mean arterial pressure (MAP) was monitored and determined during bolus infusion of Pet-2, Pet-3, Pet-7, Pet-8, Pet-12 and Pet-13. Briefly, polyethylene catheters (PE50) were inserted into the carotid artery and into the jugular vein of anesthetized hypertensive Sprague-Dawley male rats (200-300 grams). A blood pressure recorder was placed within the carotid artery. Phenylephrine (0.1 mg) was then injected and the mean arterial blood pressure (MABP) was monitored continuously until a stable baseline was reached. The hypotensive effects of intravenous (iv) bolus doses (0.1 mg of each tested compound) administered intravenously at the jugular vein in minimal volume of vehicle (0.2 ml per dose) were evaluated. Five minutes were allowed between each dose, during which the maximal decrease in MAP was recorded and a dose-response graph comparing the hypotensive effect of the compounds was constructed.

The test system of test [3] is isolated rat aorta. As to the kind of experiment: In vitro vasorelaxation of rat aortic rings contracted with epinephrine. In kind it is cell-based. As to conditions: isolated rat aorta pre-treated in vitro with 1 μM epinephrine; figure legends. The text has this: Male Sprague Dawley rats were anaesthetized using intraperitoneal injection of ketamine and xylazine (50 and 10 milligram per kilogram, respectively) and the thoracic aorta, the large upper portion of the descending aorta, starting at the caudal border of the chest bone, was removed thereafter, while carefully removing the paraadventetial tissue surrounding the vessel. Aortae were cut into rings of 4-5 millimeters and mounted onto the tissue path. The path buffer (Krebs-bicrbonate) was constantly gassed with carbogen and maintained at 37° C. The rings were preloaded under 2 g tension and equilibrated for 90 minutes, while refreshing the buffer every 15 minutes. After stabilization, the rings were contracted with epinephrine (1 μM). Cumulative Concentration-Response Curves (CCRC) were measured for the vasorelaxing effect induced by adding various concentrations, ranging from 10^−10 M to 10^−5 M of Pet-2, Pet-3, Pet-7, Pet-8, Pet-12, Pet-24, Pet-43, Pet-59, Pet-147, Pet-152 and Pet-154, and glyceryltrinitrate (GTN), according to the procedure described in Feelich et al., Molecular Pharmacology, 56:243-253 (1999). The vehicle, which was used for this experiment was water:ethanol:propyleneglycol at proportional ratio of 1:1:1.

For test [4], the system named is isolated rat aorta. As to the kind of experiment: In vitro induction of tolerance to NO releasing compounds (vasorelaxation after pre-exposure). Format: cell-based. As to conditions: rat aorta pre-treated with epinephrine and then with the compound (0.44 mM) versus control. On the procedure: Aortic rings were prepared as described hereinabove, and were exposed to 0.44 mM GTN (vehicle was water:ethanol:propyleneglycol at proportional ratio of 1:1:1) for 1 hour before CCRC construction, to thereby induce tolerance to nitroglycerine. At the end of the tolerance induction period, rings were thrice washed with the path buffer (Krebs-bicrbonate) every 15 minutes for the following hour and then CCRC for vasorelaxation on GTN-induced tolerance rings were constructed for GTN (pretreated versus untreated rings, FIG. 15), in order to verify the ability to induce and measure GTN tolerance induction in vitro
Attempted induction of tolerance to the NO-donating compounds of the present invention was performed under the same conditions as for GTN. Thus, in an exemplary experiment, rings were exposed to 0.44 mM solution of Pet-3 in the attempt to induce tolerance for Pet-3. CCRC were then measured for the vasorelaxing effect of Pet-3 on a group of rings which were pre-exposed to Pet-3 as to induce tolerance to Pet-3, and for an untreated control group. The above protocol was repeated with Pet-2, Pet-7, Pet-8, Pet-12, Pet-24, Pet-43, Pet-149 and Pet-152.

The test system of test [5] is cGMP in isolated aorta of rats pre-treated in vivo. Kind of test: Induction of in vivo nitrate tolerance (cGMP in aorta after 16 hour infusion). Set-up: species or system rat. As to conditions: for tolerance induction in vivo: cGMP accumulation in aorta of rats pre-treated in vivo, FIGS. 24, 26. How it is done:
For c-GMP levels and tolerance development, the rat's thoracic aorta was isolated after exposure to the tested compound in vivo, and measured as described above in the in vitro assays.
Male Sprague Dawley rats (220 to 250 grams) were housed under constant temperature and humidity conditions. Light was maintained at a 12/12 light dark cycle. Except for 12 hours before the experiment, when food fasting was initiated, all rats had free access to standard rat pellet diet and tap water. The animals were anesthetized by intraperitoneal injection of ketamine and xylazine combination (50 and 10 milligram per kilogram, respectively). […] The catheters were filled with normal saline solution containing 1000 IU/ml of heparin and plugged with a metal pin. Catheters were externalized to the back of the neck region and secured by a polyester felt disk.
After implantation, the rats were individually housed until they regained their preoperative weight and appeared healthy (3 to 4 days post-operation). At this time point (day 0), an osmotic mini-pump (Alza Corp., Palo Alto, Calif.) delivering constant volume (10 μl/hour) of vehicle or drug was connected to one of the intravenous catheters.
For inducing tolerance to the tested NO-donor according to the present invention, the animals received 200 μg/hour of the tested compound for 16 hours (short-term-induced tolerance). A similar number of animals were processed by the same surgical procedure and received the vehicle alone (10 μl/hour of a solution consisting of 30% ethanol and 30% propylene glycol in sterile distilled water for injection).
At the end of the infusion periods used for the development of tolerance (16 hour), the rats were anesthetized as described above, the two catheters were externalized and the delivering catheters were disconnected from the mini-pump. The abdomen was opened by midline incision and the thoracic aorta were isolated, washed and cleaned from the surrounding tissues. […]

Test [6] concerns isolated rat aorta. As to the kind of experiment: Cross-tolerance study GTN / Pet-12 on aortic rings. In kind it is cell-based. How it is done: Cross-tolerance studies were conducted using the same technique described above for measuring vasorelaxation of aortic rings from rats. Two groups of aortic rings samples were pre-treated with GTN, then one group was measured for vasorelaxation by GTN and the second group for vasorelaxation by Pet-12, an exemplary NO-donor according to the present invention. For the opposite cross-tolerance studies, two groups of aortic rings samples were pre-treated with Pet-12, then one group was measured for vasorelaxation by GTN and the second group for vasorelaxation by Pet-12.

The structures appear in SMILES notation. Entries after “also recorded” stand apart in the source; their conditions may differ.

`Cc1nc(-c2ccccc2)sc1CCO[N+](=O)[O-]` [Pet-8, 4-Methyl-5-(2-nitrooxy-ethyl)-2-phenyl-thiazole]: the “levels of cGMP as compared with GTN” value in test [1] is on record as “increased levels of cGMP”. For the same compound, in test [2], the “hypotensive effect on MAP following successive administrations” value (“hypotensive effect” for short) was “consistent and reproducible”. The “vasorelaxation effect as compared with glyceryltrinitrate” value in test [3] is given as “superior”.
Take `Cc1nc(NC(=O)[C@@H](C)c2ccc(CC(C)C)cc2)sc1CCO[N+](=O)[O-]` (stereo in doubt) [Pet-152, 2-(4-Isobutyl-phenyl)-N-[4-methyl-5-(2-nitrooxy-ethyl)-thiazol-2-yl]-propionamide]: the “levels of cGMP as compared with GTN” value in test [1] is “increased levels of cGMP”. Further, the “vasorelaxation effect as compared with glyceryltrinitrate” value in test [3] is on record as “superior”.
As to `Cc1nc(NC(=O)c2cccnc2)sc1CCO[N+](=O)[O-]` [Pet-154, N-[4-methyl-5-(2-nitrooxy-ethyl)-thiazol-2-yl]-nicotinamide], the “levels of cGMP as compared with GTN” value in test [1] is recorded as “increased levels of cGMP”.
Same read-out and setting: the same measure for `Cc1nc(N)sc1CCO[N+](=O)[O-]` [Pet-10, 4-methyl-5-(2-nitrooxy-ethyl)-thiazole-2-ylamine]: “increased levels of cGMP”.
Turning to `Cc1nc(C)c(CCO[N+](=O)[O-])s1` [Pet-3, 2,4-Dimethyl-5-(2-nitrooxy-ethyl)-thiazole], the “levels of cGMP as compared with GTN” value in test [1] is given as “increased levels of cGMP”. The “hypotensive effect” value in test [2] was “consistent and reproducible”. In addition, in test [3], the “vasorelaxation effect as compared with glyceryltrinitrate” value is “superior”. Also, in test [4], the “tolerance induction in vitro” value is “absence of tolerance induction”.
Consider `Cc1nc(Nc2cccc3ccccc23)sc1CCO[N+](=O)[O-]` [Pet-149, [4-Methyl-5-(2-nitrooxy-ethyl)-thiazol-2-yl]-naphthalen-1-yl-amine], for which the “levels of cGMP as compared with GTN” value in test [1] is on record as “increased levels of cGMP”. For the same compound, the “vasorelaxation effect as compared with glyceryltrinitrate” value in test [3] is recorded as “superior”. In addition, in test [4], the “tolerance induction in vitro” value is on record as “absence of tolerance induction”.
For the compound `O=[N+]([O-])OCC(CO[N+](=O)[O-])O[N+](=O)[O-]` [GTN, glyceryl trinitrate, reference compound], in test [5] (aorta of rats infused in vivo, FIG. 24), the “level of cGMP following a repeated treatment in vivo” value was “decreased”. In test [5], the “tolerance induction in vivo” value was “tolerance inducing effect”. For the same compound, the “c-GMP level following a repeated treatment” value in test [1] (rat aorta) was “significantly reduced”. Further, the “hypotensive effect” value in test [2] is “attenuation”. The “tolerance induction in vitro” value in test [4] is recorded as “tolerance induced”.
In the case of `CCNc1nc(C)c(CCO[N+](=O)[O-])s1` [Pet-147, Ethyl-[4-methyl-5-(2-nitrooxy-ethyl)-thiazol-2-yl]-amine], the “levels of cGMP as compared with GTN” value in test [1] is listed as “increased levels of cGMP”.
Take `CNc1cncc(-c2nc(C)c(CCO[N+](=O)[O-])s2)n1` [Pet-24, Methyl-{6-[4-methyl-5-(2-nitrooxy-ethyl)-thiazol-2-yl]-pyrazin-2-yl}-amine]: the “levels of cGMP as compared with GTN” value in test [1] is “increased levels of cGMP”. Further, in test [4], the “tolerance induction in vitro” value was “absence of tolerance induction”.
For the compound `Cc1nc(-c2cccnc2)sc1CCO[N+](=O)[O-]` [Pet-12, 3-[4-Methyl-5-(2-nitrooxy-ethyl)-thiazole-2-yl]-pyridine], the “effect of induced tolerance to GTN on vasorelaxation capacity” value in test [6] (rings pre-treated with GTN) is “no effect”. The “tolerance evoked by pre-treatment with Pet-12” value in test [6] (rings pre-treated with Pet-12, vasorelaxation by GTN or Pet-12) is on record as “does not evoke tolerance to itself not to GTN”. The “tolerance induction in vivo” value in test [5] is on record as “absence of tolerance induction; also recorded: lack of tolerance induction”. Moreover, the “hypotensive effect” value in test [2] was “consistent and reproducible”. For the same compound, in test [4], the “tolerance induction in vitro” value is listed as “absence of tolerance induction”.
With `Cc1nc(-c2ccc(C(F)(F)F)cc2)sc1CCO[N+](=O)[O-]` [Pet-59, 4-Methyl-5-(2-nitrooxy-ethyl)-2-(4-trifluoromethyl-phenyl)-thiazole], the “levels of cGMP as compared with GTN” value in test [1] is reported as “increased levels of cGMP”. Moreover, the “vasorelaxation effect as compared with glyceryltrinitrate” value in test [3] is “superior”.
Take `Cc1nc(CCCCc2nc(C)c(CCO[N+](=O)[O-])s2)sc1CCO[N+](=O)[O-]` [Pet-13]: in test [2], the “hypotensive effect” value was “consistent and reproducible”.
With `Cc1nc(Nc2nc(C)c(CCO[N+](=O)[O-])s2)sc1CCO[N+](=O)[O-]` [Pet-43, Bis-[4-methyl-5-(2-nitrooxy-ethyl)-thiazol-2-yl]-amine], the “vasorelaxation effect as compared with glyceryltrinitrate” value in test [3] is reported as “superior”. Further, the “tolerance induction in vitro” value in test [4] is “absence of tolerance induction”.
In the case of `C=CCNc1nc(C)c(CCO[N+](=O)[O-])s1` [Pet-155, allyl-[4-methyl-5-(2-nitrooxy-ethyl)-thiazol-2-yl]-amine], the “levels of cGMP as compared with GTN” value in test [1] is reported as “increased levels of cGMP”. Also, the “vasorelaxation effect as compared with glyceryltrinitrate” value in test [3] is “superior”.
In the case of `Cc1nc(N(C)C)sc1CCO[N+](=O)[O-]` [Pet-7, Dimethyl-[4-methyl-5-(2-nitrooxy-ethyl)-thiazol-2-yl]-amine], the “levels of cGMP as compared with GTN” value in test [1] is listed as “increased levels of cGMP”. The “hypotensive effect” value in test [2] is “consistent and reproducible”. Further, the “tolerance induction in vitro” value in test [4] was “absence of tolerance induction”.
